Experimental data published in US7138361B2, “Herbicidal heterocycles” (E. I. du Pont de Nemours and Company, priority 2000, dated 2006).

Key:
Format in all cases: in vivo
Nightshade = experiment: Test C preemergence; details: Rate 500 g/ha, visual evaluation after 12 to 14 days
Sunflower = experiment: Test C preemergence; details: Rate 500 g/ha, visual evaluation after 12 to 14 days
[1] = system: pigweed (Amaranthus retroflexus); experiment: Test B preemergence
Procedure, shortened: (§1)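 Pre: seeded pots sprayed, chemical in non-phytotoxic solvent/surfactant mix. Post: plants 2–18 cm, 1–4 leaf, same formulation. Greenhouse 13–15 d; visual % control vs untreated, 0–100 scale.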

[2] = system: velvetleaf (Abutilon theophrasti); experiment: Test B preemergence
Procedure, shortened: as §1

[3] = system: morning glory (Ipomoea hederacea); experiment: Test B preemergence
Procedure, shortened: as §1

[4] = system: lambsquarters (Chenopodium album); experiment: Test B preemergence
Procedure, shortened: as §1

[5] = system: barnyardgrass (Echinochloa crus-galli); experiment: Test B preemergence
Procedure, shortened: as §1

[6] = system: crabgrass (Digitaria sanguinalis); experiment: Test B preemergence
Procedure, shortened: as §1

rice (Oryza saliva) = experiment: Test B preemergence
Procedure, shortened: as §1

[7] = system: Surinam grass (Brachiaria decumbens); experiment: Test B preemergence
Procedure, shortened: as §1

[8] = system: giant foxtail (Setaria faberii); experiment: Test B preemergence
Procedure, shortened: as §1

[9] = system: cocklebur (Xanthium strumarium); experiment: Test B preemergence
Procedure, shortened: as §1

corn (Zea mays) [10] = experiment: Test B preemergence
Procedure, shortened: as §1

[11] = system: smallflower flatsedge (Cyperus difformis); experiment: Test C flooded paddy test; details: for Flatsedge plant response rating: Flooded Paddy, scale 0 to 100, 0 no effect, 100 complete control; for Plant response rating, Flatsedge: flooded paddy test, scale 0 to 100 (0 no effect, 100 complete control)
Procedure, shortened: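 Visual ratings (0 = no effect, 100 = complete control) were made 12–14 days after treatment, relative to greenhouse controls. Plants in the flooded paddy test were rice, smallflower flatsedge, duck salad and barnyardgrass, treated at the 2-leaf stage.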

[12] = system: pigweed (Amaranthus retroflexus); experiment: Test B postemergence; details: 13 to 15 days
Procedure, shortened: as §1

[13] = system: velvetleaf (Abutilon theophrasti); experiment: Test B postemergence; details: 13 to 15 days
Procedure, shortened: as §1

[14] = system: morning glory (Ipomoea hederacea); experiment: Test B postemergence; details: 13 to 15 days
Procedure, shortened: as §1

[15] = system: wheat (Triticum aestivum); experiment: Test B postemergence; details: 13 to 15 days
Procedure, shortened: as §1

[16] = system: lambsquarters (Chenopodium album); experiment: Test B postemergence; details: 13 to 15 days
Procedure, shortened: as §1

[17] = system: barnyardgrass (Echinochloa crus-galli); experiment: Test B postemergence; details: 13 to 15 days
Procedure, shortened: as §1

[18] = system: blackgrass (Alopecurus myosuroides); experiment: Test B postemergence; details: 13 to 15 days
Procedure, shortened: as §1

[19] = system: crabgrass (Digitaria sanguinalis); experiment: Test B postemergence; details: 13 to 15 days
Procedure, shortened: as §1

[20] = system: Surinam grass (Brachiaria decumbens); experiment: Test B postemergence; details: 13 to 15 days
Procedure, shortened: as §1

[21] = system: giant foxtail (Setaria faberii); experiment: Test B postemergence; details: 13 to 15 days
Procedure, shortened: as §1

[22] = system: cocklebur (Xanthium strumarium); experiment: Test B postemergence; details: 13 to 15 days
Procedure, shortened: as §1

corn (Zea mays) [23] = experiment: Test B postemergence; details: 13 to 15 days
Procedure, shortened: as §1

wild oat (Avena fatua) = experiment: Test B postemergence; details: 13 to 15 days
Procedure, shortened: as §1

[24] = Preemergence, Rate 500 g/ha, scale 0 to 100, 0 no effect, 100 complete control
[25] = preemergence, Rate 125 g/ha, scale of 0 to 100 where 0 is no effect and 100 is complete control, 13 to 15 days
[26] = Rate 125 g/ha, scale 0 (no effect) to 100 (complete control)
[27] = Rate 500 g/ha, scale 0 to 100, 0 is no effect, 100 is complete control

CC(C)(C)c1ccn(C2CCN(c3cccc(I)c3)C2=O)n1 (stereo not drawn) [Compound 88]
90: Plant response rating, Flatsedge ([11]; Rate 62 g/ha) | Plant response rating, Flatsedge ([11]; Rate 125 g/ha) | Plant response rating, Pigweed [12, 26] | Plant response rating, Barnyardgrass [17, 27]
70: Plant response rating, Surinam grass [7, 25] | Plant response rating, Morningglory [14, 27]
80: Plant response rating (0 to 100), Nightshade (Nightshade)
20: Plant response rating (0 to 100), Sunflower (Sunflower) | Plant response rating, Corn (corn (Zea mays) [10]; [24]) | Plant response rating, Corn (corn (Zea mays) [10]; [25]) | Plant response rating, Morningglory [14, 26] | Plant response rating, Foxtail, Giant [21, 26] | Plant response rating, Cocklebur [22, 26]
100: Plant response rating, Pigweed [1, 24] | Plant response rating, Pigweed [1, 25] | Plant response rating, Lambsquarters [4, 24] | Plant response rating, Lambsquarters [4, 25] | Plant response rating, Barnyardgrass [5, 24] | Plant response rating, Barnyardgrass [5, 25] | Plant response rating, Crabgrass [6, 24] | Plant response rating, Crabgrass [6, 25] | Plant response rating, Rice (rice (Oryza saliva); [24]) | Plant response rating, Surinam grass [7, 24] | Plant response rating, Foxtail, Giant [8, 24] | Plant response rating, Foxtail, Giant [8, 25] | Flatsedge plant response rating ([11]; Rate 250 g/ha) | Flatsedge plant response rating ([11]; Rate 500 g/ha) | Plant response rating, Pigweed [12, 27] | Plant response rating, Lambsquarters [16, 26] | Plant response rating, Lambsquarters [16, 27]
30: Plant response rating, Wheat [15, 27] | Plant response rating, Cocklebur [22, 27]
60: Plant response rating, Foxtail, Giant [21, 27]
40: Plant response rating, Velvetleaf [13, 27]
0: Plant response rating, Velvetleaf [2, 24] | Plant response rating, Velvetleaf [2, 25] | Plant response rating, Morningglory [3, 24] | Plant response rating, Morningglory [3, 25] | Plant response rating, Rice (rice (Oryza saliva); [25]) | Plant response rating, Cocklebur [9, 24] | Plant response rating, Cocklebur [9, 25] | Plant response rating, Velvetleaf [13, 26] | Plant response rating, Wheat [15, 26] | Plant response rating, Barnyardgrass [17, 26] | Plant response rating, Blackgrass [18, 26] | Plant response rating, Blackgrass [18, 27] | Plant response rating, Crabgrass [19, 26] | Plant response rating, Crabgrass [19, 27] | Plant response rating, Surinam grass [20, 26] | Plant response rating, Surinam grass [20, 27] | Plant response rating, Corn (corn (Zea mays) [23]; [26]) | Plant response rating, Wild Oat (wild oat (Avena fatua); [26]) | Plant response rating, Wild Oat (wild oat (Avena fatua); [27])
10: Plant response rating, Corn (corn (Zea mays) [23]; [27])

CCCC(C)c1ccn(C2OCN(c3cccc(C(F)(F)F)c3)C2=O)n1 (stereo not drawn) [Compound 89]
70: Plant response rating, Foxtail, Giant [21, 27]
80: Plant response rating, Barnyardgrass [5, 25] | Plant response rating, Flatsedge ([11]; Rate 62 g/ha) | Plant response rating, Barnyardgrass [17, 27]
90: Plant response rating, Pigweed [1, 25] | Plant response rating, Crabgrass [6, 25] | Plant response rating, Foxtail, Giant [8, 25] | Flatsedge plant response rating ([11]; Rate 250 g/ha) | Plant response rating, Flatsedge ([11]; Rate 125 g/ha) | Plant response rating, Pigweed [12, 27] | Plant response rating, Foxtail, Giant [21, 26]
60: Plant response rating (0 to 100), Sunflower (Sunflower) | Plant response rating, Surinam grass [7, 25] | Plant response rating, Crabgrass [19, 27]
100: Plant response rating, Pigweed [1, 24] | Plant response rating, Lambsquarters [4, 24] | Plant response rating, Lambsquarters [4, 25] | Plant response rating, Barnyardgrass [5, 24] | Plant response rating, Crabgrass [6, 24] | Plant response rating, Surinam grass [7, 24] | Plant response rating, Foxtail, Giant [8, 24] | Flatsedge plant response rating ([11]; Rate 500 g/ha) | Plant response rating, Lambsquarters [16, 27]
10: Plant response rating, Rice (rice (Oryza saliva); [24])
0: Plant response rating, Velvetleaf [2, 24] | Plant response rating, Velvetleaf [2, 25] | Plant response rating, Morningglory [3, 24] | Plant response rating, Morningglory [3, 25] | Plant response rating, Rice (rice (Oryza saliva); [25]) | Plant response rating, Cocklebur [9, 24] | Plant response rating, Cocklebur [9, 25] | Plant response rating, Corn (corn (Zea mays) [10]; [24]) | Plant response rating, Corn (corn (Zea mays) [10]; [25]) | Plant response rating, Velvetleaf [13, 27] | Plant response rating, Wheat [15, 27] | Plant response rating, Barnyardgrass [17, 26] | Plant response rating, Blackgrass [18, 26] | Plant response rating, Blackgrass [18, 27] | Plant response rating, Crabgrass [19, 26] | Plant response rating, Surinam grass [20, 26] | Plant response rating, Surinam grass [20, 27] | Plant response rating, Cocklebur [22, 26] | Plant response rating, Corn (corn (Zea mays) [23]; [27]) | Plant response rating, Wild Oat (wild oat (Avena fatua); [27])
40: Plant response rating, Morningglory [14, 27]
30: Plant response rating (0 to 100), Nightshade (Nightshade) | Plant response rating, Cocklebur [22, 27] | Plant response rating, Corn (corn (Zea mays) [23]; [26])
